Results: PubChem BioAssay (NCI)
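Tested at 5 concentrations; 48 h exposure; 96-well plates; endpoints linearly interpolated, else capped at highest concentration. GI50 = concentration required for 50% inhibition of growth. Definition used: TGI = concentration required for complete inhibition of growth.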

Assays:
Assay in all cases: DTP human tumour cell line panel, 48 h
786-0 renal = test system: 786-0 renal
A498 renal = test system: A498 renal
A549 NSCLC = test system: A549 NSCLC
ACHN renal = test system: ACHN renal
BT-549 breast = test system: BT-549 breast
CAKI-1 renal = test system: CAKI-1 renal
CCRF-CEM leukemia = test system: CCRF-CEM leukemia
COLO 205 colon = test system: COLO 205 colon
DU-145 prostate = test system: DU-145 prostate
EKVX NSCLC = test system: EKVX NSCLC
HCC-2998 colon = test system: HCC-2998 colon
HCT-116 colon = test system: HCT-116 colon
HCT-15 colon = test system: HCT-15 colon
HL-60(TB) leukemia = test system: HL-60(TB) leukemia
HOP-62 NSCLC = test system: HOP-62 NSCLC
HOP-92 NSCLC = test system: HOP-92 NSCLC
HS 578T breast = test system: HS 578T breast
HT29 colon = test system: HT29 colon
IGROV1 ovarian = test system: IGROV1 ovarian
K-562 leukemia = test system: K-562 leukemia
KM12 colon = test system: KM12 colon
LOX IMVI melanoma = test system: LOX IMVI melanoma
M14 melanoma = test system: M14 melanoma
MALME-3M melanoma = test system: MALME-3M melanoma
MCF7 breast = test system: MCF7 breast
MDA-MB-231 breast = test system: MDA-MB-231 breast
MDA-MB-435 = test system: MDA-MB-435
MDA-MB-468 breast = test system: MDA-MB-468 breast
MOLT-4 leukemia = test system: MOLT-4 leukemia
NCI-H226 lung = test system: NCI-H226 lung
NCI-H23 lung = test system: NCI-H23 lung
NCI-H460 lung = test system: NCI-H460 lung
NCI-H522 lung = test system: NCI-H522 lung
OVCAR-3 ovarian = test system: OVCAR-3 ovarian
OVCAR-4 ovarian = test system: OVCAR-4 ovarian
OVCAR-5 ovarian = test system: OVCAR-5 ovarian
OVCAR-8 ovarian = test system: OVCAR-8 ovarian
PC-3 prostate = test system: PC-3 prostate
RPMI-8226 leukemia = test system: RPMI-8226 leukemia
RXF 393 renal = test system: RXF 393 renal
SF-268 CNS = test system: SF-268 CNS
SF-295 CNS = test system: SF-295 CNS
SF-539 CNS = test system: SF-539 CNS
SK-MEL-2 melanoma = test system: SK-MEL-2 melanoma
SK-MEL-28 melanoma = test system: SK-MEL-28 melanoma
SK-MEL-5 melanoma = test system: SK-MEL-5 melanoma
SK-OV-3 ovarian = test system: SK-OV-3 ovarian
SN12C renal = test system: SN12C renal
SNB-19 CNS = test system: SNB-19 CNS
SNB-75 CNS = test system: SNB-75 CNS
SR leukemia = test system: SR leukemia
SW-620 colon = test system: SW-620 colon
T-47D breast = test system: T-47D breast
TK-10 renal = test system: TK-10 renal
U251 CNS = test system: U251 CNS
UACC-257 melanoma = test system: UACC-257 melanoma
UACC-62 melanoma = test system: UACC-62 melanoma
UO-31 renal = test system: UO-31 renal

C=C1CCC2C3(C)COC(c4c(F)cccc4F)OC3CCC2(C)C1C/C=C1/C(=O)OCC1O (stereo unspecified)
GI50 (786-0 renal): 1.8 µM | TGI (786-0 renal): 3.28 µM | GI50 (A498 renal): 19.8 µM | TGI (A498 renal): 34.5 µM | GI50 (A549 NSCLC): 4.05 µM | TGI (A549 NSCLC): 17.2 µM | GI50 (ACHN renal): 1.75 µM | TGI (ACHN renal): 3.16 µM | GI50 (BT-549 breast): 1.89 µM | TGI (BT-549 breast): 4.17 µM | GI50 (CAKI-1 renal): 3.38 µM | TGI (CAKI-1 renal): 11.3 µM | GI50 (CCRF-CEM leukemia): 2.24 µM | TGI (CCRF-CEM leukemia): 6.68 µM | GI50 (COLO 205 colon): 2.43 µM | TGI (COLO 205 colon): 5.27 µM | GI50 (DU-145 prostate): 4.16 µM | TGI (DU-145 prostate): 14.9 µM | GI50 (EKVX NSCLC): 13 µM | TGI (EKVX NSCLC): 26.1 µM | GI50 (HCC-2998 colon): 4.26 µM | TGI (HCC-2998 colon): 15.8 µM | GI50 (HCT-116 colon): 1.61 µM | TGI (HCT-116 colon): 3.04 µM | GI50 (HCT-15 colon): 1.75 µM | TGI (HCT-15 colon): 4.12 µM | GI50 (HL-60(TB) leukemia): 2 µM | TGI (HL-60(TB) leukemia): 5.03 µM | GI50 (HOP-62 NSCLC): 11.3 µM | TGI (HOP-62 NSCLC): 24 µM | GI50 (HOP-92 NSCLC): 2.94 µM | TGI (HOP-92 NSCLC): 9.34 µM | GI50 (HS 578T breast): 3.92 µM | TGI (HS 578T breast): 30.5 µM | GI50 (HT29 colon): 2.06 µM | TGI (HT29 colon): 4.26 µM | GI50 (IGROV1 ovarian): 4.56 µM | TGI (IGROV1 ovarian): 16.5 µM | GI50 (K-562 leukemia): 3.12 µM | TGI (K-562 leukemia): 11.3 µM | GI50 (KM12 colon): 2.54 µM | TGI (KM12 colon): 6.88 µM | GI50 (LOX IMVI melanoma): 1.59 µM | TGI (LOX IMVI melanoma): 2.93 µM | GI50 (M14 melanoma): 3.34 µM | TGI (M14 melanoma): 12 µM | GI50 (MALME-3M melanoma): 3.55 µM | TGI (MALME-3M melanoma): 12.8 µM | GI50 (MCF7 breast): 1.95 µM | TGI (MCF7 breast): 5.48 µM | GI50 (MDA-MB-231 breast): 2.29 µM | TGI (MDA-MB-231 breast): 5.45 µM | GI50 (MDA-MB-435): 1.97 µM | TGI (MDA-MB-435): 4.37 µM | GI50 (MDA-MB-468 breast): 1.78 µM | TGI (MDA-MB-468 breast): 3.58 µM | GI50 (MOLT-4 leukemia): 3.37 µM | TGI (MOLT-4 leukemia): 11.1 µM | GI50 (NCI-H226 lung): 1.78 µM | TGI (NCI-H226 lung): 3.42 µM | GI50 (NCI-H23 lung): 5.66 µM | TGI (NCI-H23 lung): 18.5 µM | GI50 (NCI-H460 lung): 3.06 µM | TGI (NCI-H460 lung): 11.8 µM | GI50 (NCI-H522 lung): 1.65 µM | TGI (NCI-H522 lung): 3.23 µM | GI50 (OVCAR-3 ovarian): 2.02 µM | TGI (OVCAR-3 ovarian): 4.12 µM | GI50 (OVCAR-4 ovarian): 2.58 µM | TGI (OVCAR-4 ovarian): 7.77 µM | GI50 (OVCAR-5 ovarian): 2.17 µM | TGI (OVCAR-5 ovarian): 5.06 µM | GI50 (OVCAR-8 ovarian): 2.26 µM | TGI (OVCAR-8 ovarian): 7.04 µM | GI50 (PC-3 prostate): 3.61 µM | TGI (PC-3 prostate): 13.4 µM | GI50 (RPMI-8226 leukemia): 2.37 µM | TGI (RPMI-8226 leukemia): 5.77 µM | GI50 (RXF 393 renal): 3.46 µM | TGI (RXF 393 renal): 11.4 µM | GI50 (SF-268 CNS): 4.4 µM | TGI (SF-268 CNS): 17.2 µM | GI50 (SF-295 CNS): 1.94 µM | TGI (SF-295 CNS): 4.67 µM | GI50 (SF-539 CNS): 1.81 µM | TGI (SF-539 CNS): 3.3 µM | GI50 (SK-MEL-2 melanoma): 2.88 µM | TGI (SK-MEL-2 melanoma): 8.52 µM | GI50 (SK-MEL-28 melanoma): 2.19 µM | TGI (SK-MEL-28 melanoma): 4.9 µM | GI50 (SK-MEL-5 melanoma): 4.53 µM | TGI (SK-MEL-5 melanoma): 16.4 µM | GI50 (SK-OV-3 ovarian): 17.8 µM | TGI (SK-OV-3 ovarian): 32.4 µM | GI50 (SN12C renal): 1.81 µM | TGI (SN12C renal): 4.2 µM | GI50 (SNB-19 CNS): 8.4 µM | TGI (SNB-19 CNS): 20.8 µM | GI50 (SNB-75 CNS): 3.75 µM | TGI (SNB-75 CNS): 16.4 µM | GI50 (SR leukemia): 3.7 µM | TGI (SR leukemia): 12.5 µM | GI50 (SW-620 colon): 1.8 µM | TGI (SW-620 colon): 3.63 µM | GI50 (T-47D breast): 3.25 µM | TGI (T-47D breast): 17.6 µM | GI50 (TK-10 renal): 6.18 µM | TGI (TK-10 renal): 19.4 µM | GI50 (U251 CNS): 1.81 µM | TGI (U251 CNS): 3.45 µM | GI50 (UACC-257 melanoma): 2.28 µM | TGI (UACC-257 melanoma): 8.77 µM | GI50 (UACC-62 melanoma): 3.13 µM | TGI (UACC-62 melanoma): 12 µM | GI50 (UO-31 renal): 1.73 µM | TGI (UO-31 renal): 3.99 µM
